The record followed here is ChEMBL document CHEMBL3612067, “Synthesis of a series of unsaturated ketone derivatives as selective and reversible monoamine oxidase inhibitors” (Bioorg Med Chem, 2015).

Data set [1] deals with T1, Amine oxidase [flavin-containing] B (Homo sapiens, UniProt P27338).
T1 sequence (P27338 whole entry): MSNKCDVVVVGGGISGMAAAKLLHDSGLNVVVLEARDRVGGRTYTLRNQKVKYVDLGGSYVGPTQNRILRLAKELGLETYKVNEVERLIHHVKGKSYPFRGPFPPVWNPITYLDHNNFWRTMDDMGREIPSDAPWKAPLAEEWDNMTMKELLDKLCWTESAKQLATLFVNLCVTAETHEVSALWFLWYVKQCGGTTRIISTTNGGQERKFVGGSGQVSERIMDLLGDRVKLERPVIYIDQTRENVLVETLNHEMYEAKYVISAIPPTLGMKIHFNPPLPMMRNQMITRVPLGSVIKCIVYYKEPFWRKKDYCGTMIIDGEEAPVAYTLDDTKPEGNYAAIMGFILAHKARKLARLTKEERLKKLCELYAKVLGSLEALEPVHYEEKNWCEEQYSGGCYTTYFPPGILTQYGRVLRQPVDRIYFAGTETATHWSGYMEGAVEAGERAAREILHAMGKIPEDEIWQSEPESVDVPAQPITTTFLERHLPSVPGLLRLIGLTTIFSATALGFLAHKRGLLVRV

The target in data set [2] is T2, Amine oxidase [flavin-containing] A (Homo sapiens, UniProt P21397).
T2 sequence (P21397 whole entry): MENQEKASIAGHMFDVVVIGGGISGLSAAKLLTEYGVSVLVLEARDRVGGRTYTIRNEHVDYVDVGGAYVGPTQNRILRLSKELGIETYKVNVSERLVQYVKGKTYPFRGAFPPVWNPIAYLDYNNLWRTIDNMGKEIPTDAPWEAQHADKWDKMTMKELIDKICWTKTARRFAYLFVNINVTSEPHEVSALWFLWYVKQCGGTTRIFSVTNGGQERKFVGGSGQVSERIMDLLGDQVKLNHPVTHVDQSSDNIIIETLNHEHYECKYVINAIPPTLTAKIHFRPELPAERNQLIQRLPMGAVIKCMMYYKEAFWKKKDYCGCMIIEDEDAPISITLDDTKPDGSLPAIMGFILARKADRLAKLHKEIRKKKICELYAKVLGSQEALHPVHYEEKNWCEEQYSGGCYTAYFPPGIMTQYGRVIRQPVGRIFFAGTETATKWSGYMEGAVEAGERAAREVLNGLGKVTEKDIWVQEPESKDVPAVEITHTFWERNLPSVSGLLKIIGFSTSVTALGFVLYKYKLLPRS

Data set [3] concerns the target T1, Amine oxidase [flavin-containing] B. To be noted: 0.5 h, read-out: INH.
Data set [4] shares this target. Briefly: Reversible inhibition of recombinant human MAOB using benzylamine as substrate at 2 uM measured after 3 times washout of drug by Amplex red based spectrophotometric analysis.
Data set [5] is described as follows: Effect on H2O2 scavenging activity of the compound up to 50 uM after 1.5 hrs by Amplex red/horseradish peroxidase detection method. Type of data set: physicochemical.
Data set [6] is described as follows: Effect on H2O2 scavenging activity of the compound after 1.5 hrs by Amplex red/horseradish peroxidase detection method. Type of data set: physicochemical.

With `O=C(/C=C/c1ccc(C(F)(F)F)cc1)Nc1cccc(F)c1`, the values for the IC50 in data set [1] and in data set [2] were 0.283 µM and more than 100 µM, respectively.
For `COc1ccccc1C(=O)/C=C/c1ccccc1C(F)(F)F`, in that order: 0.253 µM and more than 100 µM.
Regarding `COc1ccc(OC(=O)/C=C/c2ccccc2Cl)cc1`, the IC50 is 0.937 µM in data set [1] and more than 100 µM in data set [2].
Consider `O=C(/C=C/c1ccccc1C(F)(F)F)Nc1cccc(F)c1`, for which the IC50 was 3.37 µM in data set [1] and more than 100 µM in data set [2].
In the same order, the values of `O=C(/C=C/c1ccccc1C(F)(F)F)c1ccc(O)cc1` are 0.057 µM and more than 100 µM.
`COc1ccc(C(=O)/C=C/c2ccccc2F)cc1`: the inhibition at 2 µM in data set [3] is more than 80%. Also, the figures for the IC50 in data set [1] and in data set [2] were 0.056 µM and more than 100 µM, respectively. Moreover, the “inhibition (INH)” value in data set [4] is recorded as “Active”. In addition, the Activity result in data set [5] was “Not Active”.
As to `COc1ccc(C(=O)/C=C/c2ccccc2Cl)cc1`, the 50% inhibitory concentration (IC50) in data set [1] is 0.069 µM; in data set [2], more than 100 µM.
In the same order, the values of `O=C(/C=C/c1ccccc1Cl)Nc1ccc(O)cc1` are more than 10 µM and 16.7 µM.
In the same order, the values of `O=C(/C=C/c1cccc(C(F)(F)F)c1)Nc1cccc(F)c1` are 4.89 µM and more than 100 µM.
For the compound `O=C(/C=C/c1ccccc1C(F)(F)F)Nc1cccc(O)c1`, the IC50 in data set [1] is 5.98 µM; in data set [2] it was more than 100 µM.
In the same order, the values of `COc1ccc(NC(=O)/C=C/c2ccccc2Cl)cc1` are more than 10 µM and more than 100 µM.
For `COc1ccc(NC(=O)/C=C/c2ccccc2C(F)(F)F)cc1`, in that order: more than 10 µM and more than 100 µM.
For `O=C(/C=C/c1ccccc1C(F)(F)F)Nc1ccc(O)cc1`, in that order: more than 10 µM and 9.22 µM.
As for `O=C(/C=C/c1ccccc1C(F)(F)F)Nc1ccccc1`, the half-maximal inhibitory concentration (IC50) in data set [1] is 8.39 µM; in data set [2], more than 100 µM.
`COc1ccc(C(=O)/C=C/c2ccccc2)cc1` [4'-METHOXYCHALCONE]: the IC50 in data set [1] was 0.471 µM; in data set [2] it was more than 100 µM.
In the same order, the values of `COc1cccc(C(=O)/C=C/c2ccccc2)c1` are 0.793 µM and more than 100 µM.
In the same order, the values of `O=C(/C=C/c1ccccc1Cl)Nc1ccccc1` are 2.82 µM and more than 100 µM.
For `COc1ccc(C(=O)/C=C/c2ccc(C(F)(F)F)cc2)cc1`, in that order: 0.199 µM and more than 100 µM.
On to `O=C(/C=C/c1ccccc1Cl)Nc1cccc(O)c1`, for which the IC50 is 5.21 µM in data set [1] and more than 100 µM in data set [2].
Turning to `C[C@H](NCc1ccc(OCc2cccc(F)c2)cc1)C(N)=O` [SAFINAMIDE], the “inhibition (INH)” value in data set [4] is recorded as “Not Active”.
`COc1ccccc1C(=O)/C=C/c1ccccc1`: the IC50 in data set [1] is more than 10 µM; in data set [2], more than 100 µM.
In the same order, the values of `COc1ccc(/C=C/C(=O)c2ccc(OC)cc2)cc1` [4,4'-DIMETHOXYCHALCONE] are more than 10 µM and more than 100 µM.
In the same order, the values of `O=C(/C=C/c1ccccc1C(F)(F)F)Oc1ccccc1` are 5.88 µM and more than 100 µM.
In the same order, the values of `COc1ccc(C(=O)/C=C/c2ccccc2OC)cc1` are 0.419 µM and more than 100 µM.
For `O=C(O[C@@H]1Cc2c(O)cc(O)cc2O[C@@H]1c1cc(O)c(O)c(O)c1)c1cc(O)c(O)c(O)c1` [EPIGALOCATECHIN GALLATE], the Activity entry in data set [6] is reported as “Dose-dependent effect”.
`O=C(/C=C/c1ccc(C(F)(F)F)cc1)Nc1ccccc1F`: the IC50 in data set [1] is 0.58 µM; in data set [2] it was more than 100 µM.
In the same order, the values of `COc1ccccc1/C=C/C(=O)c1ccc(O)cc1` are 0.624 µM and more than 100 µM.
In the same order, the values of `COc1ccc(C(=O)/C=C/c2cccc(OC)c2)cc1` are 1.4 µM and more than 100 µM.
For `COc1cccc(C(=O)/C=C/c2ccccc2C(F)(F)F)c1`, in that order: 2.12 µM and more than 100 µM.
Turning to `COc1ccc(C(=O)/C=C/c2cccc(C(F)(F)F)c2)cc1`, the IC50 in data set [1] was 0.145 µM; in data set [2] it was more than 100 µM.
For `COc1ccc(OC(=O)/C=C/c2ccccc2C(F)(F)F)cc1`, in that order: 2.59 µM and more than 100 µM.
`O=C(/C=C/c1ccc(C(F)(F)F)cc1)Nc1ccc(F)cc1`: the IC50 in data set [1] is 0.223 µM; in data set [2], more than 100 µM.
In the case of `COc1ccc(C(=O)/C=C/c2ccccc2C(F)(F)F)cc1`, the inhibition at 2 µM in data set [3] was more than 80%. Also, the IC50 in data set [1] was 0.016 µM; in data set [2] it was more than 100 µM. Moreover, the “inhibition (INH)” value in data set [4] is “Active”. The Activity result in data set [5] was “Not Active”.

What is called IC50 is the point on the concentration scale where inhibition reaches its midpoint.
